The source made the active and inactive calls. The calls are words filed in the database; no cut-off is given here. Starred links: 1 amine or outer side, 2 acyl side, 3 side chain; linkers in the order of their positions; H or OH if unused. Non-standard residues stand in square brackets, D forms with d. Residues, ends and D or L forms follow the SMILES beside them. *: point of attachment. C20 diacid = O=C(O)CCCCCCCCCCCCCCCCCCC(=O)*; γGlu = O=C(O)[C@H](CCC(=O)[*:2])N[*:1]; Iva = CC[C@](C)(N)C(=O)O; PEG2 = NCCOCCOCCC(=O)O
Experiments:
Mus musculus [1] = experiment: Antifibrotic activity against BLM-induced C57BL/6 mouse pulmonary fibrosis model assessed as reversal of fibroblast activating effect at 240 ug/kg/day, sc administered for 2 weeks starting from 7 days post BLM induction and measured after 21 days post BLM induction; format: functional, organism-based; conditions: dose 240.0 µg/kg/day
Mus musculus [2] = experiment: Antifibrotic activity against BLM-induced C57BL/6 mouse pulmonary fibrosis model assessed as reduction in lung alpha-SMA expression at 240 ug/kg/day, sc administered for 2 weeks starting from 7 days post BLM induction and measured after 21 days post BLM induction by Western blotting analysis; format: functional, organism-based; conditions: dose 240.0 µg/kg/day
Mus musculus [3] = experiment: Antifibrotic activity against BLM-induced C57BL/6 mouse pulmonary fibrosis model assessed as increase in MMP-12 expression at 240 ug/kg/day, sc administered for 2 weeks starting from 7 days post BLM induction and measured after 21 days post BLM induction; format: functional, organism-based; conditions: dose 240.0 µg/kg/day
Mus musculus [4] = experiment: Antifibrotic activity against BLM-induced C57BL/6 mouse pulmonary fibrosis model assessed as reduction in Tnc gene expression at 240 ug/kg/day, sc administered for 2 weeks starting from 7 days post BLM induction and measured after 21 days post BLM induction by ScRNA-sequencing analysis; format: functional, organism-based; conditions: dose 240.0 µg/kg/day
Homo sapiens = species on record: Homo sapiens; experiment: Inhibition of neuraminidase (unknown origin) at 0.005 to 500 uM; conditions: dose 0.005-500 µM
Mus musculus [5] = experiment: Antifibrotic activity against BLM-induced C57BL/6 mouse pulmonary fibrosis model assessed as reduction in Mgp gene expression at 240 ug/kg/day, sc administered for 2 weeks starting from 7 days post BLM induction and measured after 21 days post BLM induction by ScRNA-sequencing analysis; format: functional, organism-based; conditions: dose 240.0 µg/kg/day
Mus musculus [6] = experiment: Antifibrotic activity against BLM-induced C57BL/6 mouse pulmonary fibrosis model assessed as reduction in MMP-12 expression at 240 ug/kg/day, sc administered for 2 weeks starting from 7 days post BLM induction and measured after 21 days post BLM induction in presence of GM6001; format: functional, organism-based; conditions: dose 240.0 µg/kg/day
Mus musculus [7] = experiment: Antifibrotic activity against BLM-induced C57BL/6 mouse pulmonary fibrosis model assessed as reduction in lung Fn expression at 240 ug/kg/day, sc administered for 2 weeks starting from 7 days post BLM induction and measured after 21 days post BLM induction by Western blotting analysis; format: functional, organism-based; conditions: dose 240.0 µg/kg/day
A549 [8] = experiment: Antifibrotic activity against TNFalpha-induced human A549 cells assessed as downregulation of Fn expression level at 10 uM incubated for 24 hrs by Western blotting analysis; format: functional, cell-based
RAW264.7 [9] = experiment: Induction of cell migration in mouse RAW264.7 cells at 10 uM by DAPI staining based assay; format: functional
RAW264.7 [10] = experiment: Antifibrotic activity against BLM-induced mouse RAW264.7 cells assessed as downregulation in TIMP-1 expression at 10 uM after 24 hrs by Western blotting analysis; format: functional, cell-based
Mus musculus [11] = experiment: Antifibrotic activity against BLM-induced C57BL/6 mouse pulmonary fibrosis model assessed as reduction in Eln gene expression at 240 ug/kg/day, sc administered for 2 weeks starting from 7 days post BLM induction and measured after 21 days post BLM induction by ScRNA-sequencing analysis; format: functional, organism-based; conditions: dose 240.0 µg/kg/day
Mus musculus [12] = experiment: Antifibrotic activity against BLM-induced C57BL/6 mouse pulmonary fibrosis model assessed as reduction in alpha-SMA expression at 240 ug/kg/day, sc administered for 2 weeks starting from 7 days post BLM induction and measured after 21 days post BLM induction in presence of Clo-Lip; format: functional, organism-based; conditions: dose 240.0 µg/kg/day
Mus musculus [13] = experiment: Antifibrotic activity against BLM-induced C57BL/6 mouse pulmonary fibrosis model assessed as reduction in Des gene expression at 240 ug/kg/day, sc administered for 2 weeks starting from 7 days post BLM induction and measured after 21 days post BLM induction by ScRNA-sequencing analysis; format: functional, organism-based; conditions: dose 240.0 µg/kg/day
[14] = Tmax in Sprague-Dawley rat serum at 0.12 mg/kg, sc administered as single dose measured upto 10 days by LC-MS/MS method; format: ADME, organism-based; conditions: time < 10 day
Mus musculus [15] = experiment: Antifibrotic activity against BLM-induced C57BL/6 mouse pulmonary fibrosis model at 240 ug/kg/day, sc administered for 2 weeks starting from 7 days post BLM induction and measured after 21 days post BLM induction in presence of Clo-Lip; format: functional, organism-based; conditions: dose 240.0 µg/kg/day
Mus musculus [16] = experiment: Antifibrotic activity against BLM-induced C57BL/6 mouse pulmonary fibrosis model assessed as reduction in lung inflammation at 150 ug/kg, sc administered for 2 weeks starting from 7 days post BLM induction and measured after 21 days post BLM induction by immunohistochemical staining based assay; format: functional, organism-based; conditions: dose 150.0 µg/kg
A549 [17] = experiment: Antifibrotic activity against BLM-induced human A549 cells assessed as reduction in MMP-12 expression at 10 uM after 24 hrs by Western blotting analysis; format: functional, cell-based
Mus musculus [18] = experiment: Antifibrotic activity against BLM-induced C57BL/6 mouse pulmonary fibrosis model assessed as reduction in Tpm2 gene expression at 240 ug/kg/day, sc administered for 2 weeks starting from 7 days post BLM induction and measured after 21 days post BLM induction by ScRNA-sequencing analysis; format: functional, organism-based; conditions: dose 240.0 µg/kg/day
Mus musculus [19] = experiment: Antifibrotic activity against BLM-induced C57BL/6 mouse pulmonary fibrosis model assessed as downregulation of Timp1 gene expression in lung tissue at 150 ug/kg, sc administered for 2 weeks starting from 7 days post BLM induction and measured after 21 days post BLM induction by RT-qPCR assay; format: functional, organism-based; conditions: dose 150.0 µg/kg
RAW264.7 [20] = experiment: Antifibrotic activity against BLM-induced mouse RAW264.7 cells assessed as upregulation of MMP-12 protein expression at 10 uM incubated for 6 to 24 hrs by Western blotting analysis; format: functional, cell-based; conditions: time 6-24 hrs
Mus musculus [21] = experiment: Antifibrotic activity against BLM-induced C57BL/6 mouse pulmonary fibrosis model assessed as downregulation of Acta2 gene expression in lung tissue at 150 ug/kg, sc administered for 2 weeks starting from 7 days post BLM induction and measured after 21 days post BLM induction by RT-qPCR assay; format: functional, organism-based; conditions: dose 150.0 µg/kg
Mus musculus [22] = experiment: Antifibrotic activity against BLM-induced C57BL/6 mouse pulmonary fibrosis model assessed as reduction in Acta2 gene expression at 240 ug/kg/day, sc administered for 2 weeks starting from 7 days post BLM induction and measured after 21 days post BLM induction by ScRNA-sequencing analysis; format: functional, organism-based; conditions: dose 240.0 µg/kg/day
Mus musculus [23] = experiment: Antifibrotic activity against BLM-induced C57BL/6 mouse pulmonary fibrosis model assessed as inhibition of activated fibroblast signature at 240 ug/kg/day, sc administered for 2 weeks starting from 7 days post BLM induction and measured after 21 days post BLM induction by gene enrichment analysis; format: functional, organism-based; conditions: dose 240.0 µg/kg/day
A549 [24] = experiment: Antifibrotic activity against BLM-induced human A549 cells cocultured with RAW264.7 cells assessed as reduction in Fn expression at 10 uM after 24 hrs by Western blotting analysis; format: functional, cell-based
Mus musculus [25] = experiment: Antifibrotic activity against BLM-induced C57BL/6 mouse pulmonary fibrosis model assessed as downregulation of Mmp-9 gene expression in lung tissue at 150 ug/kg, sc administered for 2 weeks starting from 7 days post BLM induction and measured after 21 days post BLM induction by RT-qPCR assay; format: functional, organism-based; conditions: dose 150.0 µg/kg
Mus musculus [26] = experiment: Antifibrotic activity against BLM-induced C57BL/6 mouse pulmonary fibrosis model assessed as downregulation of IL-6 gene expression in lung tissue at 150 ug/kg, sc administered for 2 weeks starting from 7 days post BLM induction and measured after 21 days post BLM induction by RT-qPCR assay; format: functional, organism-based; conditions: dose 150.0 µg/kg
Mus musculus [27] = experiment: Antifibrotic activity against BLM-induced C57BL/6 mouse pulmonary fibrosis model assessed as reduction in proportion of fibroblasts at 240 ug/kg/day, sc administered for 2 weeks starting from 7 days post BLM induction and measured after 21 days post BLM induction; format: functional, organism-based; conditions: dose 240.0 µg/kg/day

**Q.** For `CC[C@](C)(NC(=O)[C@@H](NC(=O)CCOCCOCCNC(=O)CCOCCOCCNC(=O)CC[C@H](NC(=O)CCCCCCCCCCCCCCCCCCC(=O)O)C(=O)O)C(C)C)C(=O)NCC(=O)N[C@@H](CO)C(=O)N1CCC[C@H]1C(=O)N[C@@H](CO)C(=O)N[C@@H](C)C(=O)N[C@@H](CCC(N)=O)C(=O)N[C@@H](CCC(=O)O)C(=O)N[C@@H](CCC(=O)O)C(=O)N[C@@H](C)C(=O)N[C@@H](CO)C(=O)N1CCC[C@H]1C(=O)N[C@@H](C)C(N)=O` ({C20 diacid-γGlu-PEG2-PEG2}-V[Iva]GSPSAQEEASPA-NH2), which Activity (Mus musculus [1]) is on record?
**A.** Its Activity is “Active”.

**Q.** What about the Activity (Mus musculus [2]) of the same compound?
**A.** Its Activity is “Active”.

**Q.** And the Activity (Mus musculus [3])?
**A.** Its Activity is “Active”.

**Q.** What about the Activity (Mus musculus [4]) of the same compound?
**A.** Its Activity is “Active”.

**Q.** What about the inhibition (Homo sapiens) of the same compound?
**A.** The inhibition was “Active”.

**Q.** What about the Activity (Mus musculus [5]) of the same compound?
**A.** Its Activity is “Active”.

**Q.** And the Activity (Mus musculus [6])?
**A.** The Activity was “inactive”.

**Q.** What about the Activity (Mus musculus [7]) of the same compound?
**A.** Its Activity is “Active”.

**Q.** And the Activity (A549 [8])?
**A.** The Activity was “Active”.

**Q.** What about the Activity (RAW264.7 [9]) of the same compound?
**A.** The Activity was “Active”.

**Q.** And the Activity (RAW264.7 [10])?
**A.** Its Activity is “Active”.

**Q.** And the Activity (Mus musculus [11])?
**A.** Its Activity is “Active”.

**Q.** And the Activity (Mus musculus [12])?
**A.** The Activity was “inactive”.

**Q.** What about the Activity (Mus musculus [13]) of the same compound?
**A.** Its Activity is “Active”.

**Q.** And the Tmax [14]?
**A.** Its Tmax is 24 h.

**Q.** And the Activity (Mus musculus [15])?
**A.** Its Activity is “inactive”.

**Q.** What about the Activity (Mus musculus [16]) of the same compound?
**A.** Its Activity is “Active”.

**Q.** What about the Activity (A549 [17]) of the same compound?
**A.** Its Activity is “inactive”.

**Q.** And the Activity (Mus musculus [18])?
**A.** Its Activity is “Active”.

**Q.** What about the Activity (Mus musculus [19]) of the same compound?
**A.** Its Activity is “Active”.

**Q.** And the Activity (RAW264.7 [20])?
**A.** The Activity was “Active”.

**Q.** And the Activity (Mus musculus [21])?
**A.** Its Activity is “Active”.

**Q.** And the Activity (Mus musculus [22])?
**A.** Its Activity is “Active”.

**Q.** And the Activity (Mus musculus [23])?
**A.** The Activity was “Active”.

**Q.** What about the Activity (A549 [24]) of the same compound?
**A.** Its Activity is “Active”.

**Q.** What about the Activity (Mus musculus [25]) of the same compound?
**A.** Its Activity is “Active”.

**Q.** What about the Activity (Mus musculus [26]) of the same compound?
**A.** The Activity was “Active”.

**Q.** What about the Activity (Mus musculus [27]) of the same compound?
**A.** Its Activity is “Active”.

Source: ChEMBL document CHEMBL5543137, “Design and Synthesis of Novel Ultralong-Acting Peptides as EDP-EBP Interaction Inhibitors for Pulmonary Fibrosis Treatment” (J Med Chem, 2024)
